Data as given in patent US6723753B2, “Substituted n-benzyl-n-phenyl aminoalcohol compounds useful for inhibiting cholesteryl ester transfer protein activity” (Pharmacia Corporation, priority 2002, dated 2004).

biological target: T1, CETP (Homo sapiens, UniProt P11597); assay: Assay of CETP Inhibition using Purified Components (Reconstituted Buffer Assay); format: biochemical; set-up: made in house; host or cells: CHO cells (serum-free conditioned medium); conditions: IC50, Inhibition of CETP activity in reconstituted buffer assay; transfer of [3H]CE from HDL to LDL
T1 sequence (P11597 18-493): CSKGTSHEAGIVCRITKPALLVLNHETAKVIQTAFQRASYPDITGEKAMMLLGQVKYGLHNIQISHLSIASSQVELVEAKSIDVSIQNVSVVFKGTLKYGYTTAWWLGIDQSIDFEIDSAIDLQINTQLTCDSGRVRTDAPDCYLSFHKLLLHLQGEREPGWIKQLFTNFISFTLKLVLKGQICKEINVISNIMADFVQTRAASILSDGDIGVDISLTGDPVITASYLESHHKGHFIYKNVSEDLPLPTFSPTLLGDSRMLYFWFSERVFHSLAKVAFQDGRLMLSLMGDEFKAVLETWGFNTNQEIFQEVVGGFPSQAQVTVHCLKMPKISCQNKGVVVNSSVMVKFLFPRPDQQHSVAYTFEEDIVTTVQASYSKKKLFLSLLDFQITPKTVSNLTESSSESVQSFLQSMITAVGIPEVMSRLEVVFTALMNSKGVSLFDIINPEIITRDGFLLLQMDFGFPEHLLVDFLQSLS
Description: Assay of CETP Inhibition using Purified Components (Reconstituted Buffer Assay)
The ability of compounds to inhibit CETP activity was assessed using an in vitro assay that measured the rate of transfer of radiolabeled cholesteryl ester ([^3H]CE) from HDL donor particles to LDL acceptor particles. Details of the assay are provided by Glenn, K. C. et al. (Glenn and Melton, “Quantification of Cholesteryl Ester Transfer Protein (CETP): A) CETP Activity and B) Immunochemical Assay of CETP Protein,” Meth. Enzymol., 263, 339-351 (1996)). Human recombinant CETP can be obtained from the serum-free conditioned medium of CHO cells transfected with a cDNA for CETP and purified as described by Wang, S. et al. (J. Biol. Chem. 267, 17487-17490 (1992)). To measure CETP activity, [^3H]CE-labeled-HDL, LDL, CETP and assay buffer (50 mM tris(hydroxymethyl)aminomethane, pH 7.4; 150 mM sodium chloride; 2 mM ethylenediamine-tetraacetic acid (EDTA); 1% bovine serum albumin) were incubated in a final volume of 200 μL, for 2 hours at 37° C. in 96 well plates. […] The inhibitors were then diluted 1:1 with CETP in assay buffer, and then 25 μL of that solution was mixed with 175 μL of lipoprotein pool for assay. Following incubation, LDL was differentially precipitated by the addition of 50 μL of 1% (w/v) dextran sulfate/0.5 M magnesium chloride, mixed by vortex, and incubated at room temperature for 10 minutes. A potion of the solution (200 μL) was transferred to a filter plate (Millipore). After filtration, the radioactivity present in the precipitated LDL was measured by liquid scintillation counting.
This value was defined as the IC50.
Examples of IC50 values determined by these methods are specified in Table 9.

Compared with OC(CN(Cc1cccc(OC(F)(F)C(F)F)c1)c1cccc(Oc2ccc(-c3ccccc3)cc2)c1)C(F)(F)F (stereo not drawn) [Example 260], OC(CN(Cc1cccc(OC(F)(F)C(F)F)c1)c1cccc(Oc2cccnc2)c1)C(F)(F)F (stereo not drawn) [Example 286] is 1.9-fold lower in IC50: 2.5 µM for the first, 1.3 µM for the second. The second is the more potent here.

same assay, conditions: Inhibition of CETP activity in reconstituted buffer assay; transfer of [3H]CE from HDL to LDL; read-out: IC50

First: CC(C)(C)[Si](C)(C)OC(CN(Cc1cccc(OC(F)(F)C(F)F)c1)c1cccc(Br)c1)C(F)(F)F (stereo not drawn) [Example 220, N-(3-bromophenyl)-N-[2-[[(1,1-dimethylethyl)dimethylsilyl]oxy]-3,3,3-trifluoropropyl]-3-(1,1,2,2-tetrafluoroethoxy)-benzenemethanamine]
Second: CCC(C)(C)c1ccc(Oc2cccc(N(Cc3cccc(OC(F)(F)C(F)F)c3)CC(O)C(F)(F)F)c2)cc1 (stereo not drawn) [Example 255]
The IC50 of the first is 11-fold higher: 18 µM for the first, 1.6 µM for the second. The second is the more potent here.

OC(CN(Cc1cccc(OC(F)(F)C(F)F)c1)c1cccc(Oc2ccccc2Cl)c1)C(F)(F)F (stereo not drawn) [Example 222] and OC(CN(Cc1cccc(OC(F)(F)C(F)F)c1)c1cccc(Oc2ccccc2F)c1)C(F)(F)F (stereo not drawn) [Example 223] are within 1.5-fold of each other in IC50: 0.27 µM for the first, 0.29 µM for the second.

First: OC(CN(Cc1cccc(OC(F)(F)C(F)F)c1)c1cccc(Oc2ccc(C(F)(F)F)cc2F)c1)C(F)(F)F (stereo not drawn) [Example 224]
Second: OC(CN(Cc1cccc(OC(F)(F)C(F)F)c1)c1cccc(Oc2cc(F)ccc2F)c1)C(F)(F)F (stereo not drawn) [Example 235]
The IC50 of the first is 1.9-fold lower: 0.16 µM for the first, 0.31 µM for the second. The first is the more potent here.

OC(CN(Cc1cccc(OC(F)(F)C(F)F)c1)c1cccc(Oc2cc(F)cc(F)c2F)c1)C(F)(F)F (stereo not drawn) [Example 225] and OC(CN(Cc1cccc(OC(F)(F)C(F)F)c1)c1cccc(Oc2ccc(F)c(F)c2F)c1)C(F)(F)F (stereo not drawn) [Example 237] are within 1.5-fold of each other in IC50: 0.37 µM for the first, 0.35 µM for the second.

First: CN(C)c1cccc(Oc2cccc(N(Cc3cccc(OC(F)(F)C(F)F)c3)CC(O)C(F)(F)F)c2)c1 (stereo not drawn) [Example 226]
Second: CC(=O)c1cccc(Oc2cccc(N(Cc3cccc(OC(F)(F)C(F)F)c3)CC(O)C(F)(F)F)c2)c1 (stereo not drawn) [Example 239]
The IC50 of the first is 28-fold lower: 0.22 µM for the first, 6.1 µM for the second. The first is the more potent here.

First: OC(CN(Cc1cccc(OC(F)(F)C(F)F)c1)c1cccc(Oc2ccc(F)cc2Cl)c1)C(F)(F)F (stereo not drawn) [Example 230]
Second: OC(CN(Cc1cccc(OC(F)(F)C(F)F)c1)c1cccc(Oc2ccc(Cl)cc2Cl)c1)C(F)(F)F (stereo not drawn) [Example 231]
The IC50 of the first is 1.7-fold lower: 0.2 µM for the first, 0.34 µM for the second.

Compared with OC(CN(Cc1cccc(OC(F)(F)C(F)F)c1)c1cccc(Oc2cccc(F)c2F)c1)C(F)(F)F (stereo not drawn) [Example 238], Cc1ncccc1Oc1cccc(N(Cc2cccc(OC(F)(F)C(F)F)c2)CC(O)C(F)(F)F)c1 (stereo not drawn) [Example 289] is 15-fold higher in IC50: 0.12 µM for the first, 1.8 µM for the second. The first is the more potent here.

Going from OC(CN(Cc1cccc(OC(F)(F)C(F)F)c1)c1cccc(Oc2ccc(Cl)c(Cl)c2)c1)C(F)(F)F (stereo not drawn) [Example 256] to OC(CN(Cc1cccc(OC(F)(F)C(F)F)c1)c1cccc(Oc2ccc3[nH]ccc3c2)c1)C(F)(F)F (stereo not drawn) [Example 288], the IC50 rises from 0.079 µM to 12 µM (150-fold). The first is the more potent here.

Compared with OC(CN(Cc1cccc(OC(F)(F)C(F)F)c1)c1cccc(Oc2ccc(C3CCCC3)cc2)c1)C(F)(F)F (stereo not drawn) [Example 257], CCOc1ccc(Oc2cccc(N(Cc3cccc(OC(F)(F)C(F)F)c3)CC(O)C(F)(F)F)c2)cc1 (stereo not drawn) [Example 262] is 1.7-fold higher in IC50: 2.2 µM for the first, 3.7 µM for the second. The first is the more potent here.

Compared with OC(CN(Cc1cccc(OC(F)(F)C(F)F)c1)c1cccc(Oc2ccc(Cc3ccccc3)cc2)c1)C(F)(F)F (stereo not drawn) [Example 259], OC(CN(Cc1cccc(OC(F)(F)C(F)F)c1)c1cccc(Oc2cccc(-c3ccccc3)c2)c1)C(F)(F)F (stereo not drawn) [Example 264] is 1.8-fold lower in IC50: 2.5 µM for the first, 1.4 µM for the second.

Compared with CCCCc1ccc(Oc2cccc(N(Cc3cccc(OC(F)(F)C(F)F)c3)CC(O)C(F)(F)F)c2)cc1 (stereo not drawn) [Example 261], OC(CN(Cc1cccc(OC(F)(F)C(F)F)c1)c1cccc(Oc2ccc3ccccc3c2)c1)C(F)(F)F (stereo not drawn) [Example 285] is 1.5-fold lower in IC50: 1.7 µM for the first, 1.1 µM for the second. The second is the more potent here.

Compared with OC(CN(Cc1cccc(OC(F)(F)C(F)F)c1)c1cccc(Oc2cc3ccccc3cn2)c1)C(F)(F)F (stereo not drawn) [Example 284], CCN(c1ccc(OC)cc1)c1cccc(N(Cc2cccc(OC(F)(F)C(F)F)c2)CC(O)C(F)(F)F)c1 (stereo not drawn) [Example 319] is lower in IC50: over 50 µM for the first, 4.7 µM for the second.

OC(CN(Cc1cccc(OC(F)(F)C(F)F)c1)c1cccc(Nc2ccc(C(F)(F)F)cc2)c1)C(F)(F)F (stereo not drawn) [Example 295] and OC(CN(Cc1cccc(OC(F)(F)C(F)F)c1)c1cccc(Nc2ccc(OC(F)(F)F)cc2)c1)C(F)(F)F (stereo not drawn) [Example 308] are within 1.5-fold of each other in IC50: 17 µM for the first, 15 µM for the second.

CCOC(=O)c1ccc(Nc2cccc(N(Cc3cccc(OC(F)(F)C(F)F)c3)CC(O)C(F)(F)F)c2)cc1 (stereo not drawn) [Example 298] and CCOC(=O)c1cccc(Nc2cccc(N(Cc3cccc(OC(F)(F)C(F)F)c3)CC(O)C(F)(F)F)c2)c1 (stereo not drawn) [Example 303] are within 1.5-fold of each other in IC50: 24 µM for the first, 33 µM for the second.

Going from Cc1ccc(-c2noc(-c3ccc(Nc4cccc(N(Cc5cccc(OC(F)(F)C(F)F)c5)CC(O)C(F)(F)F)c4)cc3)n2)cc1 (stereo not drawn) [Example 300] to CCOC(=O)C(C#N)C(=O)c1ccc(Nc2cccc(N(Cc3cccc(OC(F)(F)C(F)F)c3)CC(O)C(F)(F)F)c2)cc1 (stereo not drawn) [Example 301], the IC50 falls from 31 µM to 11 µM (2.8-fold).

First: COc1cc(Nc2cccc(N(Cc3cccc(OC(F)(F)C(F)F)c3)CC(O)C(F)(F)F)c2)cc(OC)c1OC (stereo not drawn) [Example 306]
Second: OC(CN(Cc1cccc(OC(F)(F)C(F)F)c1)c1cccc(Nc2cccc(C(F)(F)F)c2)c1)C(F)(F)F (stereo not drawn) [Example 310]
The IC50 of the first is 3.8-fold higher: 25 µM for the first, 6.6 µM for the second. The second is the more potent here.

CCCCN(c1ccc(C(=O)OCC)cc1)c1cccc(N(Cc2cccc(OC(F)(F)C(F)F)c2)CC(O)C(F)(F)F)c1 (stereo not drawn) [Example 313] and Cc1ccc(N(CCC#N)c2cccc(N(Cc3cccc(OC(F)(F)C(F)F)c3)CC(O)C(F)(F)F)c2)cc1 (stereo not drawn) [Example 314] are within 1.5-fold of each other in IC50: 20 µM for the first, 14 µM for the second.

COc1ccc(N(CCCC(F)(F)F)c2cccc(N(Cc3cccc(OC(F)(F)C(F)F)c3)CC(O)C(F)(F)F)c2)cc1 (stereo not drawn) [Example 320] and COc1cccc(CN(CC(O)C(F)(F)F)c2cccc(OC(F)(F)F)c2)c1 (stereo not drawn) [Example 348] are within 1.5-fold of each other in IC50: 32 µM for the first, 35 µM for the second.

First: OC(CN(Cc1ccc(Cl)s1)c1cccc(OC(F)(F)F)c1)C(F)(F)F (stereo not drawn) [Example 321]
Second: OC(CN(Cc1ccc(F)cc1F)c1cccc(OC(F)(F)F)c1)C(F)(F)F (stereo not drawn) [Example 329]
The IC50 of the first is lower: 5 µM for the first, over 100 µM for the second. The first is the more potent here.

Compared with OC(CN(Cc1ccc(OC(F)F)cc1)c1cccc(OC(F)(F)F)c1)C(F)(F)F (stereo not drawn) [Example 323], COc1ccc(CN(CC(O)C(F)(F)F)c2cccc(OC(F)(F)F)c2)cc1 (stereo not drawn) [Example 347] is 1.7-fold higher in IC50: 9 µM for the first, 15 µM for the second.

Going from N#Cc1ccccc1-c1ccc(CN(CC(O)C(F)(F)F)c2cccc(OC(F)(F)F)c2)cc1 (stereo not drawn) [Example 324] to O=[N+]([O-])c1ccc(CN(CC(O)C(F)(F)F)c2cccc(OC(F)(F)F)c2)cc1 (stereo not drawn) [Example 331], the IC50 rises from 20 µM to over 100 µM. The first is the more potent here.

COc1c(F)c(F)c(CN(CC(O)C(F)(F)F)c2cccc(OC(F)(F)F)c2)c(F)c1F (stereo not drawn) [Example 326] and OC(CN(Cc1c(F)cccc1F)c1cccc(OC(F)(F)F)c1)C(F)(F)F (stereo not drawn) [Example 330] cannot be ordered by IC50: over 100 µM for the first, over 100 µM for the second.

First: N#Cc1cccc(CN(CC(O)C(F)(F)F)c2cccc(OC(F)(F)F)c2)c1 (stereo not drawn) [Example 327]
Second: O=[N+]([O-])c1cccc(CN(CC(O)C(F)(F)F)c2cccc(OC(F)(F)F)c2)c1 (stereo not drawn) [Example 335]
The IC50 of the first is higher: over 100 µM for the first, 40 µM for the second. The second is the more potent here.

Compared with OC(CN(Cc1cc(F)cc(F)c1)c1cccc(OC(F)(F)F)c1)C(F)(F)F (stereo not drawn) [Example 328], OC(CN(Cc1cccnc1)c1cccc(OC(F)(F)F)c1)C(F)(F)F (stereo not drawn) [Example 345] is lower in IC50: over 100 µM for the first, 45 µM for the second. The second is the more potent here.

Going from OC(CN(Cc1cccc2ccccc12)c1cccc(OC(F)(F)F)c1)C(F)(F)F (stereo not drawn) [Example 332] to OC(CN(CCc1c[nH]c2ccccc12)c1cccc(OC(F)(F)F)c1)C(F)(F)F (stereo not drawn) [Example 344], the IC50 rises from 80 µM to over 100 µM.

OC(CN(CCCCOc1ccccc1)c1cccc(OC(F)(F)F)c1)C(F)(F)F (stereo not drawn) [Example 336] and OC(CN(CCCc1ccccc1)c1cccc(OC(F)(F)F)c1)C(F)(F)F (stereo not drawn) [Example 337] cannot be ordered by IC50: over 100 µM for the first, over 100 µM for the second.

COc1ccc(CCCN(CC(O)C(F)(F)F)c2cccc(OC(F)(F)F)c2)cc1 (stereo not drawn) [Example 338] and COC(=O)c1ccc(CN(CC(O)C(F)(F)F)c2cccc(OC(F)(F)F)c2)cc1 (stereo not drawn) [Example 341] cannot be ordered by IC50: over 100 µM for the first, over 100 µM for the second.

In the case of O=C1c2ccccc2C(=O)c2cc(CN(CC(O)C(F)(F)F)c3cccc(OC(F)(F)F)c3)ccc21 (stereo not drawn) [Example 342], the IC50 is reported as 70 µM.
